From patent US10239957B2, “Peptide containing conjugates for dual molecular delivery of oligonucleotides” (Merck Sharp & Dohme Corp., priority 2013, dated 2019)
In the oligonucleotide strings, read from the 5' end, every base follows the letter of its sugar. An asterisk marks phosphorothioate; unmarked linkages are phosphodiester. Other units and linkages are bracketed, terminal groups are in braces. A string of capitals states the bases alone. Where no end group is shown, it is not given here. [ ]: non-standard residue; d: D form. {NH2C6-invAb} = cap: inverted abasic residue carrying an aminohexyl phosphate (attachment handle); [invAb] = inverted abasic unit; TGN = not defined here; m = 2'-O-methyl; f = 2'-fluoro

Columns and labels:
[1] = system: CTNNB1; test: In vitro DMD assay: mRNA silencing enhancement by peptide conjugates after siRNA-IV treatment; assay type: cell-based; details: primary mouse hepatocytes, siRNA-IV 125 nM baseline
In short: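 Primary mouse hepatocytes were pretreated 1 h with siRNA-IV at 125 nM, then exposed ~16 h to peptide conjugates across a dose range, washed and held 24 h more. Target mRNA by RT-qPCR, normalized to PPIB (dddCt), expressed as enhancement over siRNA-IV alone relative to untreated cells.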

[2] = system: CTNNB1; test: In vivo evaluation in mice: liver mRNA knockdown measurement; details: for In vivo mRNA knockdown: mice
Description: Female CD-1 mice (Charles River) were injected in accordance with either a sequential dosing paradigm or a co-dosing paradigm. In the sequential dosing paradigm, the targeted siRNA (SCE) is dosed at t=0 and the targeted peptide is separately dosed up to 2 hr before the SCE (−2 hr) or up to 24 hr after the SCE (+24 hr). In the co-dosing paradigm, the SCE and peptides are co-formulated and dosed together in the same formulation as a single injection at t=0. The mice were dosed either by intravenous (i.v.) or subcutaneous (s.c.) injection of SCE and peptide. For the i.v. doses, the compounds were injected into the tail vein of the mice. For the s.c. doses, the compounds were injected in the subcutaneous space on the back of the mouse between the shoulder blades. At the indicated harvest times (measured from t=0 when the siRNA was dosed, regardless of when the peptide was dosed), the animals were sacrificed and 3 mm liver punches were collected, preserved in RNAlater (Ambion), and stored at 4° C. Separate 5 mm liver punches were collected, placed in 96-well plates, frozen on dry ice, and stored at −80° C. until use.
The 3 mm liver punches were removed from RNAlater and homogenized in Trizol (Invitrogen) using a bead mill tissue lyser (Qiagen); disruption was performed for two 5-minute cycles at 30 Hz. RNA extraction was performed using 1-bromo-2-chloropropane (Acros Organics) and total RNA was isolated from the aqueous phase using the MagMax RNA isolation method (Ambion). […] TaqMan qPCR analysis was performed with an ABI 7900 Real-Time PCR System using TaqMan Fast Advanced Master Mix (Applied Biosystems). All TaqMan probes and primers for CTNNB1 and PPIB (housekeeping gene) were purchased from Applied Biosystems as pre-validated gene expression assays. Results are calculated by the comparative Ct method, where the difference between the CTNNB1 Ct value and the PPIB Ct value (ΔCt) is calculated and then further normalized relative to the PBS control by taking a second difference (ΔΔCt), as described previously (1).

[3] = siRNA metabolic stability (order stated for FIG. 6); details: order siRNA-I>siRNA-V>siRNA-VI
[4] = TGN-L-siRNA-III 0.25 mg/kg IV, peptide 10 mg/kg IV 15 min after siRNA

TGN-S-S-SEQ ID NO: 1631 (D) ([dC]G[dL][dF]G[dH][dI][dH][dH][dL][dI][dH][dH]G[dL][dH][dN][dL][dI][dD][dW][dW][dN]G; not fully specified (residue 1); also: TGN attached via disulfide; listed as Homo sapiens)
In vitro dddCt (vs. baseline SCE dose) ([1]; Targeted peptide dose 15625 nM): −2.11 | In vivo mRNA knockdown [2, 4]: 17%

TGN-S-S-SEQ ID NO: 1632 (D) ([dC]G[dL][dF]G[dE][dI][dH][dH][dL][dI][dH][dH]G[dL][dH][dN][dL][dI][dD][dW][dW][dN]G; not fully specified (residue 1); also: TGN attached via disulfide; listed as Homo sapiens)
In vitro dddCt (vs. baseline SCE dose) ([1]; Targeted peptide dose 125 nM): −0.29 | In vitro dddCt (vs. baseline SCE dose) ([1]; Targeted peptide dose 625 nM): −0.44 | In vitro dddCt (vs. baseline SCE dose) ([1]; Targeted peptide dose 3125 nM): −0.19 | In vitro dddCt (vs. baseline SCE dose) ([1]; Targeted peptide dose 15625 nM): −0.47 | In vivo mRNA knockdown [2, 4]: 36%

TGN-S-S-SEQ ID NO: 1633 (D) ([dC]G[dL][dF]G[dE][dI][dH][dH][dL][dI][dH][dH]G[dL][dE][dN][dL][dI][dD][dW][dW][dN]G; not fully specified (residue 1); also: TGN attached via disulfide; listed as Homo sapiens)
In vitro dddCt (vs. baseline SCE dose) ([1]; Targeted peptide dose 25 nM): −0.33 | In vitro dddCt (vs. baseline SCE dose) ([1]; Targeted peptide dose 625 nM): −0.2 | In vitro dddCt (vs. baseline SCE dose) ([1]; Targeted peptide dose 3125 nM): −0.2 | In vivo mRNA knockdown [2, 4]: 55%

TGN-S-S-SEQ ID NO: 1634 (D) ([dC]G[dL][dF]G[dE][dI][dH][dE][dL][dI][dH][dH]G[dL][dE][dN][dL][dI][dD][dW][dW][dN]G; not fully specified (residue 1); also: TGN attached via disulfide; listed as Homo sapiens)
In vitro dddCt (vs. baseline SCE dose) ([1]; Targeted peptide dose 125 nM): −0.3 | In vitro dddCt (vs. baseline SCE dose) ([1]; Targeted peptide dose 625 nM): −0.41 | In vitro dddCt (vs. baseline SCE dose) ([1]; Targeted peptide dose 3125 nM): −0.3 | In vitro dddCt (vs. baseline SCE dose) ([1]; Targeted peptide dose 15625 nM): −0.74 | In vivo mRNA knockdown [2, 4]: 17%

TGN-S-S-SEQ ID NO: 1651 (D) ([dC]G[dL][dF][dE][dE][dI][dA][dE][dL][dI][dE][dE]G[dL][dE][dN][dL][dI][dD][dW]G[dN]G; not fully specified (residue 1); also: TGN attached via disulfide; listed as Homo sapiens)
In vitro dddCt (vs. baseline SCE dose) ([1]; Targeted peptide dose 125 nM): −0.84 | In vitro dddCt (vs. baseline SCE dose) ([1]; Targeted peptide dose 625 nM): −1.11 | In vitro dddCt (vs. baseline SCE dose) ([1]; Targeted peptide dose 3125 nM): −1.55 | In vitro dddCt (vs. baseline SCE dose) ([1]; Targeted peptide dose 15625 nM): −1.48 | In vivo mRNA knockdown [2, 4]: 49%

TGN-S-S-SEQ ID NO: 1652 (D) ([dC][dE][dL][dF][dE][dE][dL][dA][dE][dL][dL][dW][dE]G[dL][dE][dN][dL][dI][dD][dW]G[dN][dS]; not fully specified (residue 1); also: TGN attached via disulfide; listed as Homo sapiens)
In vitro dddCt (vs. baseline SCE dose) ([1]; Targeted peptide dose 125 nM): −1.27 | In vitro dddCt (vs. baseline SCE dose) ([1]; Targeted peptide dose 625 nM): −1.5 | In vitro dddCt (vs. baseline SCE dose) ([1]; Targeted peptide dose 3125 nM): −1.6 | In vitro dddCt (vs. baseline SCE dose) ([1]; Targeted peptide dose 15625 nM): −2.03 | In vivo mRNA knockdown [2, 4]: 37%

TGN-S-S-SEQ ID NO: 1653 (D) ([dC]G[dL][dF]G[dE][dI][dA][dE][dL][dI][dW][dE]G[dL][dE][dN][dL][dI][dD][dW]G[dN]G; not fully specified (residue 1); also: TGN attached via disulfide; listed as Homo sapiens)
In vitro dddCt (vs. baseline SCE dose) ([1]; Targeted peptide dose 25 nM): −0.76 | In vitro dddCt (vs. baseline SCE dose) ([1]; Targeted peptide dose 15625 nM): −2.13 | In vivo mRNA knockdown [2, 4]: 63% | In vivo mRNA knockdown ([2]; TGN-L-siRNA-III 0.25 mg/kg IV, peptide 50 mg/kg IV 15 min after siRNA): 69%

TGN-S-S-SEQ ID NO: 1712 (L): TGN-S-S-peptide; peptide CFLGALWKALSELLKNLIDWWNG (C(TGN)FLGALWKALSELLKNLIDWWNG; reading uncertain; also: TGN disulfide conjugate at Cys1; listed as Homo sapiens)
In vitro dddCt (vs. baseline SCE dose) ([1]; Targeted peptide dose 8 nM): 0.03 | In vitro dddCt (vs. baseline SCE dose) ([1]; Targeted peptide dose 40 nM): 0.07 | In vitro dddCt (vs. baseline SCE dose) ([1]; Targeted peptide dose 200 nM): −0.08 | In vitro dddCt (vs. baseline SCE dose) ([1]; Targeted peptide dose 1000 nM): 0 | In vitro dddCt (vs. baseline SCE dose) ([1]; Targeted peptide dose 5000 nM): −0.2 | In vivo mRNA knockdown ([2]; TGN-L-siRNA-III 0.5 mg/kg IV, peptide 5 mg/kg IV 15 min after siRNA): 34%

TGN-S-S-SEQ ID NO: 1713 (L) (C(TGN)GLRHGELEELSHEEGLENLIDWWNG; reading uncertain; also: TGN disulfide conjugate at Cys1; listed as Homo sapiens)
In vitro dddCt (vs. baseline SCE dose) ([1]; Targeted peptide dose 8 nM): 0.21 | In vitro dddCt (vs. baseline SCE dose) ([1]; Targeted peptide dose 40 nM): 0.21 | In vitro dddCt (vs. baseline SCE dose) ([1]; Targeted peptide dose 200 nM): 0.15 | In vitro dddCt (vs. baseline SCE dose) ([1]; Targeted peptide dose 1000 nM): −0.04 | In vitro dddCt (vs. baseline SCE dose) ([1]; Targeted peptide dose 5000 nM): 0 | In vivo mRNA knockdown ([2]; TGN-L-siRNA-III 0.25 mg/kg IV, peptide 2 mg/kg IV 15 min after siRNA): 0% | In vivo mRNA knockdown [2, 4]: 2%

TGN-S-S-SEQ ID NO: 1740 (L): TGN-S-S-peptide; peptide GLFEAIEGFIENGWEGLAELAEALEALAAGGSC (GLFEAIEGFIENGWEGLAELAEALEALAAGGSC(TGN); reading uncertain; also: TGN linked to Cys via disulfide, TGN not defined; listed as Homo sapiens)
In vitro dddCt (vs. baseline SCE dose) ([1]; Targeted peptide dose 8 nM): 0 | In vitro dddCt (vs. baseline SCE dose) ([1]; Targeted peptide dose 40 nM): 0.13 | In vitro dddCt (vs. baseline SCE dose) ([1]; Targeted peptide dose 200 nM): −0.07 | In vitro dddCt (vs. baseline SCE dose) ([1]; Targeted peptide dose 1000 nM): −0.06 | In vitro dddCt (vs. baseline SCE dose) ([1]; Targeted peptide dose 5000 nM): −0.06 | In vivo mRNA knockdown ([2]; TGN-L-siRNA-II 0.25 mg/kg IV, peptide 3 mg/kg IV 15 min after siRNA): 20%

TGN-S-S-SEQ ID NO: 1746 (D): TGN-S-S-peptide; peptide CEALFGKINAIFIGKL ([dC][dE][dA][dL][dF]G[dK][dI][dN][dA][dI][dF][dI]G[dK][dL]; not fully specified (residue 1); also: disulfide to TGN peptide via Cys1; listed as Homo sapiens)
In vitro dddCt (vs. baseline SCE dose) ([1]; Targeted peptide dose 8 nM): −0.01 | In vitro dddCt (vs. baseline SCE dose) ([1]; Targeted peptide dose 40 nM): −0.09 | In vitro dddCt (vs. baseline SCE dose) ([1]; Targeted peptide dose 200 nM): −0.07 | In vitro dddCt (vs. baseline SCE dose) ([1]; Targeted peptide dose 1000 nM): −0.09 | In vitro dddCt (vs. baseline SCE dose) ([1]; Targeted peptide dose 5000 nM): −0.04 | In vivo mRNA knockdown ([2]; TGN-L-siRNA-III 0.5 mg/kg IV, peptide 2 mg/kg IV 15 min after siRNA): 31% | In vivo mRNA knockdown ([2]; TGN-L-siRNA-III 0.5 mg/kg IV, peptide 10 mg/kg IV 15 min after siRNA): 25%

siRNA-I: CTNNB1 siRNA; passenger SEQ ID NO 1803, guide SEQ ID NO 1804 (sense CUGUUGGAUUGAUUCGAAAUU; guide UUUCGAAUCAAUCCAACAGUU; (1)..(1) aminohexyl phosphate inverted abasic cap; (1)..(2) 2′-O-methyl; (3)..(3) 2′-deoxy-2′-fluoro; (4)..(5) 2′-O-methyl; (6)..(8) 2′-deoxy-2′-fluoro; (9)..(10) 2′-O-methyl; (11)..(12) 2′-deoxy-2′-fluoro; (13)..(15) 2′-O-methyl; (16)..(19) 2′-deoxy-2′-fluoro; (20)..(21) 2′-O-methyl; (20)..(21) phosphorothioate internucleotide linkage; (21)..(21) inverted abasic cap; (1)..(1) 2′-O-methyl; (1)..(2) phosphorothioate internucleotide linkage; (2)..(2) 2′-deoxy-2′-fluoro; (2)..(3) phosphorothioate internucleotide linkage; (3)..(3) 2′-O-methyl; (3)..(4) phosphorothioate internucleotide linkage)
Effect of timing of peptide dose on activity, FIG. 6 ([2]; peptide within 2 hr before up to 24 hr after siRNA dose): does not significantly change the activity | siRNA (metabolic) stability [3]: highly stable

siRNA-V: CTNNB1 siRNA; passenger SEQ ID NO 1803, guide SEQ ID NO 1808 (sense {NH2C6-invAb}-mCmUfGmUmUfGfGfAmUmUfGfAmUmUmCfGfAfAfAmU*mU[invAb]; guide mUfUmUfCmGfAmAfUmCfAmAfUmCfCmAfAmCfAmGmU*mU)
Activity, FIG. 6 ([2]; longer separation times (4-24 hr post-siRNA dose)): background levels | Activity (KD), FIG. 6 ([2]; peptide dose times within 2 hr (before or after) the siRNA): ~25% | siRNA (metabolic) stability [3]: moderately stable
